ChEMBL document CHEMBL1138798, “A docking score function for estimating ligand-protein interactions: application to acetylcholinesterase inhibition” (J Med Chem, 2004)

Legend:
Acetylcholinesterase [1] = biological target: T1, Acetylcholinesterase (Homo sapiens, UniProt P22303)
Description: Inhibitory activity against Acetylcholinesterase enzyme using human AChE assay

Acetylcholinesterase [2] = biological target: T1, Acetylcholinesterase; remark: listed apart in the source
Description: Binding affinity towards Acetylcholinesterase

T1 sequence (P22303 whole entry): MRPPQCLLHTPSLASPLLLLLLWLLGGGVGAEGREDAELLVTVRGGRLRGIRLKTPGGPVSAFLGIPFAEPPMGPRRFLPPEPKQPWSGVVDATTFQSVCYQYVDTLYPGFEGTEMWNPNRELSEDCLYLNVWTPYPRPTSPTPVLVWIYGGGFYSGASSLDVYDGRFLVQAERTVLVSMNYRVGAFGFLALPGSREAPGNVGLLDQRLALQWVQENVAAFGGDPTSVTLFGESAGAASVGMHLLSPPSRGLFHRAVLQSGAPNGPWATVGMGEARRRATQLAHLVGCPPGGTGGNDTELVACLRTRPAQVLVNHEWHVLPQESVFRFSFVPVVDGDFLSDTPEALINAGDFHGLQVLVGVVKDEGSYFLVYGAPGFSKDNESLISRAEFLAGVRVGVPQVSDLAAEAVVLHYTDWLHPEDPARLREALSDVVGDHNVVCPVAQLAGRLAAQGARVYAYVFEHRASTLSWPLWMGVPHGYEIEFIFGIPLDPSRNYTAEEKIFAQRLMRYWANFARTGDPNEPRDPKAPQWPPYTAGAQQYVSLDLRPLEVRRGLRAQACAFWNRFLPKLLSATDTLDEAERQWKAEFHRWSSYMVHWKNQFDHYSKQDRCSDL

| Compound | IC50 (Acetylcholinesterase [1]) [µM] | Ki (Acetylcholinesterase [2]) [µM] |
| --- | --- | --- |
| COc1cc2c(cc1OC)SC(C(=O)CCc1cc[n+](Cc3coc([N+](=O)[O-])c3)cc1)C2 (stereo unspecified) | 0.0045 | 0.00447 |
| N#Cc1ccc2c(CCC3CCN(Cc4ccccc4)CC3)noc2c1 |  | 0.1 |
| COc1cc2cc(C3=CC[N+](C)(Cc4ccccc4)CC3)sc2cc1OC (stereo unspecified) | 2.67 | 2.69 |
| COc1cc2cc(C(=O)C3=CC[N+](C)(Cc4ccccc4)CC3)sc2cc1OC (stereo unspecified) | 0.52 | 0.525 |
| Cc1ccc2onc(CCC3CCN(Cc4ccccc4)CC3)c2c1 |  | 0.00776 |
| O=S(=O)(Nc1ccc2c(CCC3CCN(Cc4ccccc4)CC3)noc2c1)c1ccccc1 |  | 0.0141 |
| Brc1ccc2c(CCC3CCN(Cc4ccccc4)CC3)noc2c1 |  | 0.0501 |
| COc1cc2c(cc1OC)SC(C(=O)CCc1cc[n+](CC3CC3)cc1)C2 (stereo unspecified) | 0.11 | 0.11 |
| C=CC[n+]1ccc(CCC(=O)C2Cc3cc(OC)c(OC)cc3S2)cc1 (stereo unspecified) | 0.00627 | 0.219 |
| CCC[n+]1ccc(CCC(=O)C2Cc3cc(OC)c(OC)cc3S2)cc1 (stereo unspecified) | 2.57 | 2.57 |
| COc1cc2c(cc1OC)SC(C(=O)CCc1cc[n+](Cc3ccc(F)cc3)cc1)C2 (stereo unspecified) | 0.0026 | 0.00257 |
| CN1C(=O)Cc2cc3onc(CCC4CCN(Cc5ccccc5)CC4)c3cc21 | 0.00048 | 0.000479 |
| O=C(CCc1cc[n+](Cc2ccccc2)cc1)c1ccc2c(c1)OCO2 | 0.24 | 0.24 |
| Cc1cc(C(=O)CCC2CC[N+](C)(Cc3ccccc3)CC2)nn1-c1ccccc1 (stereo unspecified) |  | 0.0219 |
| CC[n+]1ccc(CCC(=O)C2Cc3cc(OC)c(OC)cc3S2)cc1 (stereo unspecified) | 0.28 | 0.282 |
| COC(=O)C[N+]1(C)CCC(CCC(=O)C2Cc3cc(OC)c(OC)cc3S2)CC1 (stereo unspecified) | 0.054 | 0.0537 |
| CC(=O)Nc1ccc2c(CCC3CCN(Cc4ccccc4)CC3)noc2c1 |  | 0.00282 |
| COc1cc2c(cc1OC)SC(CC1CC[N+](C)(Cc3ccccc3)CC1)C2 (stereo unspecified) | 30 | 30.2 |
| COCC[N+]1(C)CCCC(C(=O)c2cc3cc(OC)c(OC)cc3s2)CC1 (stereo unspecified) | 0.053 | 0.0525 |
| COc1cc2cc(C(=O)CC3CCCC[N+](C)(Cc4ccccc4)CC3)sc2cc1OC (stereo unspecified) | 0.11 | 0.11 |
| COc1cc2cc(C(=O)C3CCC[N+](C)(Cc4ccc([N+](=O)[O-])o4)CC3)sc2cc1OC (stereo unspecified) | 0.032 | 0.0324 |
| C[N+]1(Cc2ccccc2)CCC(CCC(=O)c2ccc3c(c2)OCCO3)CC1 (stereo unspecified) |  | 0.1 |
| COc1cc2c(cc1OC)SC(C(=O)CCc1cc[n+](Cc3ccsc3)cc1)C2 (stereo unspecified) | 0.006 | 0.00603 |

| Compound | IC50 (Acetylcholinesterase [1]) [µM] | Ki (Acetylcholinesterase [2]) [µM] |
| --- | --- | --- |
| COc1cc2c(cc1OC)C(=O)C(C1CC[N+](C)(Cc3ccccc3)CC1)=C2 (stereo unspecified) | 0.25 | 0.251 |
| COc1ccc2cc(C(=O)CCC3CC[N+](C)(Cc4ccccc4)CC3)ccc2c1 (stereo unspecified) |  | 0.0501 |
| O=C1CCc2cc3c(CCC4CCN(Cc5ccccc5)CC4)noc3cc2N1 |  | 0.000575 |
| COc1cc2cc(C3CC[N+](C)(Cc4ccccc4)CC3O)sc2cc1OC (stereo unspecified) | 19.6 | 19.5 |
| COc1cc2cc(C(=O)C3CCC[N+](C)(CC(=O)OC(C)(C)C)CC3)sc2cc1OC (stereo unspecified) | 0.079 | 0.0794 |
| COc1cc2cc(C(=O)C3CCC[N+](C)(CC#N)CC3)sc2cc1OC (stereo unspecified) | 1 | 1 |
| C[N+]1(Cc2ccccc2)CCC(CCC(=O)c2ccc3c(c2)OCO3)CC1 (stereo unspecified) | 0.0415 | 0.0417 |
| COc1cc2cc(C(=O)C3CC[N+](C)(Cc4ccccc4)CCC3OC)sc2cc1OC (stereo unspecified) | 0.12 | 0.12 |
| COc1cc2cc(C(=O)CCC3CC[N+](C)(Cc4ccccc4)CC3)n(C)c2cc1OC (stereo unspecified) |  | 0.12 |
| C[N+]1(Cc2ccccc2)CCC(CCC(=O)c2ccc3c(c2)CCCCO3)CC1 (stereo unspecified) |  | 0.138 |
| COc1cc2cc(C(=O)C3CCC[N+](C)(Cc4ccccc4)CC3)sc2cc1OC (stereo unspecified) | 0.008 | 0.00794 |
| COc1cc2c(cc1OC)SC(C(=O)CC1C=CC[N+](C)(Cc3ccccc3)CC1)C2 (stereo unspecified) | 0.75 | 0.759 |
| COc1cc2c(cc1OC)SC(C(=O)CCc1cc[n+](CC3CCC3)cc1)C2 (stereo unspecified) | 0.04 | 0.0398 |
| CCOCC[n+]1ccc(CCC(=O)C2Cc3cc(OC)c(OC)cc3S2)cc1 (stereo unspecified) | 0.007 | 0.00708 |
| O=C1Cc2c(ccc3c(CCC4CCN(Cc5ccccc5)CC4)noc23)N1 |  | 0.00363 |
| COc1cc2cc(C(=O)C3CC[N+](C)(Cc4ccccc4)CCC3O)sc2cc1OC (stereo unspecified) | 0.043 | 0.0427 |
| COc1cc2c(cc1OC)SC(C(=O)CCc1cc[n+](C)cc1)C2 (stereo unspecified) | 0.9 | 0.891 |
| O=C1Cc2cc3c(CCC4CCN(Cc5ccccc5)CC4)noc3cc2N1 [ICOPEZIL] |  | 0.000331 |
| COc1cc2onc(CCC3CCN(Cc4ccccc4)CC3)c2cc1C | 0.0058 | 0.00575 |
| COCC[n+]1ccc(CCC(=O)C2Cc3cc(OC)c(OC)cc3S2)cc1 (stereo unspecified) | 0.03 | 0.0302 |
| O=C1Cc2cc3onc(CCC4CCN(Cc5ccccc5)CC4)c3cc2N1 |  | 0.000955 |
| COc1cc2c(cc1OC)SC(C(=O)CC(O)C1CC[N+](C)(Cc3ccccc3)CC1)C2 (stereo unspecified) | 0.19 | 0.191 |
